Assay results reported in US12378249B2, “Isoquinoline compounds and uses thereof” (Genentech, Inc., priority 2018, dated 2025).

Tests used:
[1] = system: primary human pan T cells; test: Human T-cell IL2 Induction Assay; format: cell-based; settings: anti-CD3/anti-CD28 stimulated, 4 hours
Description: Example B3: Human T-cell IL2 Induction Assay
Anti-CD3 and anti-CD28 activates TCR signaling in primary human pan T cells leading to IL-2 promoter induction. Secreted IL-2 in cell culture supernatant is detected by electrochemiluminescence using a capture antibody against IL-2 and an anti-IL-2 antibody labeled with SULFO-tag.
See www.mesoscale.com for additional electrochemiluminescence technology information.
Incubate primary human pan T cells with varying concentrations of test compounds for 30 minutes in a humidified incubator at 37° C. and 5% CO2. Transfer cells to a plate pre-coated with a fixed concentration of anti-human CD3 (determined separately for each donor lot) and add soluble anti-human CD28 (final concentration=1 μg/ml). Stimulate cells in a humidified incubator at 37° C. and 5% CO2 for 4 hours. Transfer 25 μl of supernatant to a MSD single spot plate pre-coated with an anti-human IL-2 antibody. Incubate MSD plate overnight at 4° C. with gentle shaking. Wash MSD plate 4× with wash buffer. Add SULFO-tagged detection antibody at a 1:50 dilution and incubate at room temperature shaking for 2 hours. Wash MSD plate 4× with wash buffer and add 150 μl 2×MSD read buffer. Read on an MSD instrument. Normalize data to stimulated/untreated controls to calculate % activity at each concentration of compound.
• Frozen Primary Human Pan-T Cells (StemCell Technologies #70024) • anti-human CD3 (OKT3 clone) (eBioscience #16-0037-81) • anti-human CD28 (CD28.2 clone) (BD #555725) • 96-well Human IL-2 tissue culture kit (MSD #K151AHB-4) Instrumentation: • Biomek FX for liquid handling (Beckman Coulter) • MSD SECTOR S 600 (Meso Scale Discovery)
Exemplary compounds of Formula (I) were tested in the human T-cell IL-2 induction assays. The % increase measured for IL-2 in cells treated by the test compounds relative to untreated cells are provided in Table B2 for certain compounds.

HPK1 = HPK1 (Homo sapiens (Human), UniProt Q92918, S171E/T165E); test: HPK1-FL HTRF Enzymatic Assay (HTRF); format: biochemical; settings: HPK full length T165E S171E 0.125 nM, ATP 1 mM, Biotin-SLP76 100 nM, read-out: HPK1 Ki (nM), H = HTRF
HPK1, sequence (Q92918 whole entry T165E/S171E): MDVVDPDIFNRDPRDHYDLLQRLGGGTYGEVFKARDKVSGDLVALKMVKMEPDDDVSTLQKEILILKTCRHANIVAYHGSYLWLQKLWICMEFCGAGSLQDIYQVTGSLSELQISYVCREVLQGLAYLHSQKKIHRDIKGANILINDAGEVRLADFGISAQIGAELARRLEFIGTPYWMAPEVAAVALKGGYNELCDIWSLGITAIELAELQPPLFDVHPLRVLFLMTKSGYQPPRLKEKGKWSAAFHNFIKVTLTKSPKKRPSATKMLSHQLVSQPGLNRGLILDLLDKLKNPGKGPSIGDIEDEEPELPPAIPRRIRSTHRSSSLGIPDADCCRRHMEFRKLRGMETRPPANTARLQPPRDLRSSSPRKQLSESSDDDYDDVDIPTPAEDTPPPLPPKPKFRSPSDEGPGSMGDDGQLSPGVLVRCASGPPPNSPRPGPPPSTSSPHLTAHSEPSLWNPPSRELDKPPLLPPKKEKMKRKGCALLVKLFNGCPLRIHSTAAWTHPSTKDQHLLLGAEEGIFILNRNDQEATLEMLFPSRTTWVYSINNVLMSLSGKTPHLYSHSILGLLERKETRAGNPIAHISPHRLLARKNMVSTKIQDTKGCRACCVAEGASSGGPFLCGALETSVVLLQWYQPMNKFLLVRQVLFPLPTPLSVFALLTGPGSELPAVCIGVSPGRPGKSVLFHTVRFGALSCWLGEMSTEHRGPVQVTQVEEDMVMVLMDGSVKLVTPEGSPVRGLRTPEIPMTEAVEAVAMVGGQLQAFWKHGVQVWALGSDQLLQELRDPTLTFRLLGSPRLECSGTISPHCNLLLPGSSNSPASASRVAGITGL
Outline: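 Ki derived from % activity calculated from the TR-FRET 665/620 ratio, using Eu-anti-pSLP76 and SA-XL665 detection added for 60 min. Reaction: compound preincubated 30 min with full-length double-mutant HPK1, then 60 min with Biotin-SLP-76 and 1 mM ATP, pH 7.5 HEPES buffer.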

| SMILES | % IL-2 increase relative to untreated cells ([1]; assayed concentration 0.31 μM) | Ki (HPK1) | % IL-2 increase relative to untreated cells ([1]; assayed concentration 0.10 μM) |
| --- | --- | --- | --- |
| Cc1c(N)cncc1-c1cc2cc(Nc3cc4n(n3)CC(=O)N(C(C)C)CC4)ncc2c(F)c1F [Compound 118, 2-((6-(5-amino-4-methylpyridin-3-yl)-7,8-difluoroisoquinolin-3-yl)amino)-6-isopropyl-5,6-dihydro-4H-pyrazolo[1,5-d][1,4]diazepin-7(8H)-one] | 400% | 0.065 nM | – |
| Cc1c(N)cncc1-c1cc2cc(Nc3cc4n(n3)CC(=O)N(C(C)C)CC4)ncc2cc1F [Compound 119, 2-((6-(5-amino-4-methylpyridin-3-yl)-7-fluoroisoquinolin-3-yl)amino)-6-isopropyl-5,6-dihydro-4H-pyrazolo[1,5-d][1,4]diazepin-7(8H)-one] | – | 0.05 nM | 542% |
| Cc1c(N)cncc1-c1cc2cc(Nc3cc4n(n3)CC(=O)N(C(C)C)CC4)ncc2c(C)c1C#N [Compound 130, 6-(5-amino-4-methyl-3-pyridyl)-3-[(6-isopropyl-7-oxo-5,8-dihydro-4H-pyrazolo[1,5-d][1,4]diazepin-2-yl)amino]-8-methyl-isoquinoline-7-carbonitrile] | – | 0.068 nM | 308% |
| Cc1c(N)cncc1-c1cc2cc(Nc3cc4n(n3)Cc3nncn3CC4)ncc2cc1F [Compound 139, N-(6-(5-amino-4-methylpyridin-3-yl)-7-fluoroisoquinolin-3-yl)-5,6-dihydro-11H-pyrazolo[1,5-d][1,2,4]triazolo[4,3-a][1,4]diazepin-8-amine] | 154% | 0.076 nM | – |
| Cc1c(N)cncc1-c1cc2cc(Nc3cc4n(n3)CC(=O)N(C(C)C)CC4)ncc2cc1Cl [Compound 140, 2-((6-(5-amino-4-methylpyridin-3-yl)-7-chloroisoquinolin-3-yl)amino)-6-isopropyl-5,6-dihydro-4H-pyrazolo[1,5-d][1,4]diazepin-7(8H)-one] | – | 0.086 nM | 304% |
